The values below come from BindingDB's records for doi:10.1021/jm00063a003 (Merck Sharp and Dohme Research Laboratories, 1993).

The structures appear in SMILES notation.

The nature of this assay: Displacement of [3H]mesulergine from pig cortex 5-hydroxytryptamine 1C receptor. A general note: Displacement assays read how much labelled ligand stays bound in the presence of the test substance.
For orientation: IC50 means the concentration at which inhibition is half-maximal. Low readings indicate higher potency, high ones lower potency. In the case of `Cc1noc(Cc2ccc3[nH]cc(CCN)c3c2)n1`, the half-inhibitory concentration (IC50) is 1260 nM.

The molecule `CC(=O)Nc1ccc(Cc2noc(-c3ccc4[nH]cc(CCN)c4c3)n2)cc1` came in with a concentration for half-maximal inhibition (IC50) of 1580 nM. The molecule `NCCc1c[nH]c2ccc(CCc3nc(Cc4ccccc4)no3)cc12` gave an IC50 of 794 nM.

On to `NCCc1c[nH]c2ccc(-c3nc(Cc4ccccc4)no3)cc12`, for which the IC50 came out at 3980 nM. This IC50 is about 5-fold higher than that of the molecule before. In turn, `Cc1noc(Cc2ccc3[nH]cc(CCN(C)C)c3c2)n1` yielded an IC50 of 1000 nM. `NCCc1c[nH]c2ccc(Cc3nc(N)no3)cc12`: the IC50 is 3160 nM. Against the preceding molecule, the IC50 is about 3.2-fold higher. Regarding `Cc1noc(-c2ccc3[nH]cc(CCN)c3c2)n1`, the 50% inhibitory concentration (IC50) stood at 1260 nM.

Molecule `CS(=O)(=O)Nc1ccc(Cc2noc(-c3ccc4[nH]cc(CCN)c4c3)n2)cc1` [L-694247] came in with a half-inhibitory concentration (IC50) of 316 nM. Take `CN(C)CCc1c[nH]c2ccc(CCc3nc(N)no3)cc12`: the IC50 worked out at 1000 nM. The same measure for `COc1ccc(Cc2noc(-c3ccc4[nH]cc(CCN)c4c3)n2)cc1`: 794 nM; for `NCCc1c[nH]c2ccc(-c3nc(C4CC4)no3)cc12`: 1000 nM. The same measure for `CN(C)CCc1c[nH]c2ccc(Cc3nc(N)ns3)cc12`: 251 nM.
